Type in all cases: functional
Parameters in all cases: scale not given: the % may be the effect or the level left

The subject of assay [1] is Rattus norvegicus. Put plainly: Antihyperglycemic activity in streptozotocin-induced Rattus norvegicus Wistar (rat) diabetic model assessed as reduction in plasma glucose level at 25 umol/kg, po for 15 measured after treatment.
Assay [2] has as its system Rattus norvegicus. The assay is described as follows: Antihyperglycemic activity in streptozotocin-induced Rattus norvegicus Wistar (rat) diabetic model assessed as reduction in plasma glucose level at 20 umol/kg, po for 9 weeks measured on day 7.
Assay [3] has as its system Rattus norvegicus. Put plainly: Antihyperglycemic activity in streptozotocin-induced Rattus norvegicus Wistar (rat) diabetic model assessed as reduction in plasma glucose level at 20 umol/kg, po for 9 weeks measured at 3 day.
In assay [4] the test system is Rattus norvegicus. The assay is described as follows: Antihyperglycemic activity in streptozotocin-induced Rattus norvegicus Wistar (rat) diabetic model assessed as reduction in plasma glucose level at 15 umol/kg, po for 9 weeks measured at 15 day.
Assay [5] concerns Rattus norvegicus. The assay is described as follows: Antihyperglycemic activity in streptozotocin-induced Rattus norvegicus Wistar (rat) diabetic model assessed as reduction in plasma glucose level at 15 umol/kg, po for 9 weeks measured on day 7.
In assay [6] the test system is Rattus norvegicus. The assay is described as follows: Antihyperglycemic activity in streptozotocin-induced Rattus norvegicus Wistar (rat) diabetic model assessed as reduction in plasma glucose level at 15 umol/kg, po for 9 weeks measured at 10 day.
Assay [7] relates to Rattus norvegicus. Put plainly: Antihyperglycemic activity in streptozotocin-induced Rattus norvegicus Wistar (rat) diabetic model assessed as reduction in plasma glucose level at 15 umol/kg, po for 9 weeks measured at 3 day.
Assay [8] relates to Rattus norvegicus. Put plainly: Antihyperglycemic activity in streptozotocin-induced Rattus norvegicus Wistar (rat) diabetic model assessed as reduction in plasma glucose level at 25 umol/kg, po for 9 weeks measured at 15 day.
For assay [9], the system named is Rattus norvegicus. The assay is described as follows: Antihyperglycemic activity in streptozotocin-induced Rattus norvegicus Wistar (rat) diabetic model assessed as reduction in plasma glucose level at 30 umol/kg, po for 9 weeks measured at 15 day.
For assay [10], the system named is Rattus norvegicus. Put plainly: Antihyperglycemic activity in streptozotocin-induced Rattus norvegicus Wistar (rat) diabetic model assessed as reduction in plasma glucose level at 30 umol/kg, po for 9 weeks measured at 10 day.
For assay [11], the system named is Rattus norvegicus. Put plainly: Antihyperglycemic activity in streptozotocin-induced Rattus norvegicus Wistar (rat) diabetic model assessed as reduction in plasma glucose level at 30 umol/kg, po for 9 weeks measured on day 7.
The subject of assay [12] is Rattus norvegicus. The assay is described as follows: Antihyperglycemic activity in streptozotocin-induced Rattus norvegicus Wistar (rat) diabetic model assessed as reduction in plasma glucose level at 25 umol/kg, po for 9 weeks measured at 10 day.
Assay [13] relates to Rattus norvegicus. The assay is described as follows: Antihyperglycemic activity in streptozotocin-induced Rattus norvegicus Wistar (rat) diabetic model assessed as reduction in plasma glucose level at 30 umol/kg, po for 9 weeks measured at 3 day.
In assay [14] the test system is Rattus norvegicus. Put plainly: Antihyperglycemic activity in streptozotocin-induced Rattus norvegicus Wistar (rat) diabetic model assessed as reduction in plasma glucose level at 25 umol/kg, po for 9 weeks measured on day 7.
In assay [15] the test system is Rattus norvegicus. The assay is described as follows: Antihyperglycemic activity in streptozotocin-induced Rattus norvegicus Wistar (rat) diabetic model assessed as reduction in plasma glucose level at 25 umol/kg, po for 9 weeks measured at 3 day.
The test system of assay [16] is Rattus norvegicus. The assay is described as follows: Antihyperglycemic activity in streptozotocin-induced Rattus norvegicus Wistar (rat) diabetic model assessed as reduction in plasma glucose level at 20 umol/kg, po for 9 weeks measured at 15 day.
Assay [17] deals with Rattus norvegicus. Put plainly: Antihyperglycemic activity in streptozotocin-induced Rattus norvegicus Wistar (rat) diabetic model assessed as reduction in plasma glucose level at 20 umol/kg, po for 9 weeks measured at 10 day.

Each structure is given as a SMILES string.

For the molecule `CCOC(=O)/C(=C/c1ccc(OC)cc1OC)c1ccc(Oc2ccc(CC3SC(=O)NC3=O)cc2)cc1` (stereo not given), the Activity in the assay with Rattus norvegicus [1] is 46.03%. Take `COC(=O)/C(=C/c1ccc(OC)cc1OC)c1ccc(Oc2ccc(CC3SC(=O)NC3=O)cc2)cc1` (stereo not given): the Activity with Rattus norvegicus [1] turned out to be 46.13%. Regarding `CCOC(=O)/C(=C/c1ccc([N+](=O)[O-])cc1)c1ccc(Oc2ccc(CC3SC(=O)NC3=O)cc2)cc1` (stereo not given), in the assay with Rattus norvegicus [1], the Activity was found to be 13.4%.

Turning to `COC(=O)/C(=C/c1ccc(OC)cc1)c1ccc(Oc2ccc(CC3SC(=O)NC3=O)cc2)cc1` (stereo not given), the Activity in the assay on Rattus norvegicus [1] was 16.3%.

With `CCCOC(=O)/C(=C/c1ccc(OC)cc1OC)c1ccc(Oc2ccc(CC3SC(=O)NC3=O)cc2)cc1` (stereo not given), the Activity with Rattus norvegicus [1] is reported as 45.91%. For the molecule `CCCOC(=O)/C(=C/c1ccccc1)c1ccc(Oc2ccc(CC3SC(=O)NC3=O)cc2)cc1` (stereo not given), the Activity in the assay with Rattus norvegicus [1] was 8.6%.

For `CCOC(=O)/C(=C/c1ccc(Br)cc1)c1ccc(Oc2ccc(CC3SC(=O)NC3=O)cc2)cc1` (stereo not given), the Activity with Rattus norvegicus [1] is given as 13.63%.

For `CCCOC(=O)/C(=C/c1ccc(Br)cc1)c1ccc(Oc2ccc(CC3SC(=O)NC3=O)cc2)cc1` (stereo not given), in the assay on Rattus norvegicus [1], the Activity was 13.42%. Consider `CCCOC(=O)/C(=C/c1ccc(O)cc1)c1ccc(Oc2ccc(CC3SC(=O)NC3=O)cc2)cc1` (stereo not given), for which, in the assay on Rattus norvegicus [1], the Activity is reported as 17.48%.

On to `COC(=O)/C(=C/c1ccc([N+](=O)[O-])cc1)c1ccc(Oc2ccc(CC3SC(=O)NC3=O)cc2)cc1` (stereo not given), for which the Activity in the assay on Rattus norvegicus [1] is recorded as 13.26%. Regarding `CCOC(=O)/C(=C/c1ccc(OC)cc1)c1ccc(Oc2ccc(CC3SC(=O)NC3=O)cc2)cc1` (stereo not given), the Activity in the assay on Rattus norvegicus [1] is 14.61%. In the case of `COC(=O)/C(=C/c1ccccc1)c1ccc(Oc2ccc(CC3SC(=O)NC3=O)cc2)cc1` (stereo not given), in the assay on Rattus norvegicus [1], the Activity is listed as 10.74%. Same read-out and setting: under `CCCOC(=O)/C(=C/c1ccc([N+](=O)[O-])cc1)c1ccc(Oc2ccc(CC3SC(=O)NC3=O)cc2)cc1` (stereo not given) stands 12.45%.

Turning to `COC(=O)/C(=C/c1ccc(O)cc1)c1ccc(Oc2ccc(CC3SC(=O)NC3=O)cc2)cc1` (stereo not given), the Activity with Rattus norvegicus [1] is 18.81%. Regarding `COC(=O)/C(=C/c1ccc(Br)cc1)c1ccc(Oc2ccc(CC3SC(=O)NC3=O)cc2)cc1` (stereo not given), in the assay on Rattus norvegicus [1], the Activity worked out at 15.58%. Still for that read-out and setting: under `CCCOC(=O)/C(=C/c1ccc(OC)cc1)c1ccc(Oc2ccc(CC3SC(=O)NC3=O)cc2)cc1` (stereo not given) stands 13%; under `CN(CCOc1ccc(CC2SC(=O)NC2=O)cc1)c1ccccn1` (stereo not given) [ROSIGLITAZONE], 56.73%; under `COC(=O)/C(=C/c1ccc(OC)c(OC)c1)c1ccc(Oc2ccc(CC3SC(=O)NC3=O)cc2)cc1` (stereo not given), 38.11%.

Turning to `COC(=O)/C(=C/c1cccc(OC)c1OC)c1ccc(Oc2ccc(CC3SC(=O)NC3=O)cc2)cc1` (stereo not given), the Activity with Rattus norvegicus [1] was found to be 37.05%.

Consider `CCOC(=O)/C(=C/c1ccccc1)c1ccc(Oc2ccc(CC3SC(=O)NC3=O)cc2)cc1` (stereo not given), for which, in the assay on Rattus norvegicus [1], the Activity was determined as 9.8%. With `CCOC(=O)/C(=C/c1ccc(O)cc1)c1ccc(Oc2ccc(CC3SC(=O)NC3=O)cc2)cc1` (stereo not given), in the assay on Rattus norvegicus [1], the Activity was found to be 18.16%.

As to `CCCOC(=O)/C(=C/c1cccc(OC)c1OC)c1ccc(Oc2ccc(CC3SC(=O)NC3=O)cc2)cc1` (stereo not given), the Activity worked out at 14.56% in the assay with Rattus norvegicus [2]; 37.24% in the assay with Rattus norvegicus [1]; 10.91% in the assay on Rattus norvegicus [3]; 18.47% with Rattus norvegicus [4]; 11.49% in the assay on Rattus norvegicus [5]; 15.53% in the assay with Rattus norvegicus [6]. The Activity in the assay with Rattus norvegicus [7] is recorded as 8.38%; in the assay on Rattus norvegicus [8] it was 37.24%; in the assay with Rattus norvegicus [9], 35.47%; in the assay with Rattus norvegicus [10], 24.68%; with Rattus norvegicus [11], 20.87%; in the assay on Rattus norvegicus [12], 25.53%. The Activity in the assay on Rattus norvegicus [13] is 19.42%; in the assay on Rattus norvegicus [14], 21.34%; with Rattus norvegicus [15] it was 18.06%; in the assay on Rattus norvegicus [16] it was 21.76%; with Rattus norvegicus [17], 17.26%. With `CCCOC(=O)/C(=C/c1ccc(OC)c(OC)c1)c1ccc(Oc2ccc(CC3SC(=O)NC3=O)cc2)cc1` (stereo not given), the Activity with Rattus norvegicus [1] came out at 35.85%. Still for that read-out and setting: to `CCOC(=O)/C(=C/c1ccc(OC)c(OC)c1)c1ccc(Oc2ccc(CC3SC(=O)NC3=O)cc2)cc1` (stereo not given) belongs 37.15%.
